pIC50: −log10 of the molar value.
molecular target: T1, N-terminal His6-tagged recombinant full-length human Lck (Homo sapiens, UniProt P06239); assay: Lck IMAP assay; format: biochemical; conditions: ATP 6 μM (KM,ATP), enzyme pre-incubated with compounds for 60 minutes, values given as bins
T1 construct: N-terminal His6-tagged recombinant full-length human Lck; His6 (N); purchased Millipore
In short: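 Full-length His6-Lck at 0.1 U/ml was preincubated 60 min with compound, then run 120 min at room temperature with 100 nM fluorescein-p34cdc2 peptide and 6 μM ATP (KM) in pH 7.2 Tris buffer. Read-out by IMAP fluorescence polarization; pIC50 from ten-point √10 dilutions starting at 10^-6 M.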

T1 sequence (P06239 whole entry): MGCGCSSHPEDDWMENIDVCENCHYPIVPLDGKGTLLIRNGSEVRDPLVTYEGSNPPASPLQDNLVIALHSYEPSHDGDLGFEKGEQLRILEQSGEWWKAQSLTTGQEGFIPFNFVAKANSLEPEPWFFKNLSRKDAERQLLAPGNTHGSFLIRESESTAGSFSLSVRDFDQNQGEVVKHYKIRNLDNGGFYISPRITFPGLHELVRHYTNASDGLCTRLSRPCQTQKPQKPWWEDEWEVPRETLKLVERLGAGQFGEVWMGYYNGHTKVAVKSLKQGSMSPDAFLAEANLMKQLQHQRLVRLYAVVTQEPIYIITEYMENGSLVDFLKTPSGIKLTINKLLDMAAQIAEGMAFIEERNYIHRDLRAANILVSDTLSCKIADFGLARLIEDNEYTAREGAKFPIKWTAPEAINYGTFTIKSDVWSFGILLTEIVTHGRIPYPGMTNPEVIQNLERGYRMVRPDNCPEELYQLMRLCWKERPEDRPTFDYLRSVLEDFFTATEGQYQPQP

pIC50 | Compound
≥ 8.00 | CNC[C@H]1CC[C@H](c2nc(-c3ccc(NC(=O)c4cc5c(OC)cccc5n4C)c(OC)c3)c3c(C)nccn32)CC1 [Example 63, 4-Methoxy-N-(2-methoxy-4-(8-methyl-3-((trans)-4-((methylamino)methyl)cyclohexyl)imidazo[1,5-a]pyrazin-1-yl)phenyl)-1-methyl-1H-indole-2-carboxamide]
≥ 8.00 | CCC[C@H](C)OC(=O)Nc1ccc(-c2nc([C@H]3CC[C@H](N4CCN(C)CC4)CC3)n3ccnc(C)c23)cc1OC [Example 33a, (S)-pentan-2-yl 2-methoxy-4-(8-methyl-3-((trans)-4-(4-methylpiperazin-1-yl)cyclohexyl)imidazo[1,5-a]pyrazin-1-yl)phenylcarbamate]
≥ 8.00 | COc1cc(-c2nc([C@H]3CC[C@H](OC(C)=O)CC3)n3ccnc(C)c23)ccc1NC(=O)c1cc2c(OC)cccc2n1C [Example 5, (Trans)-4-(1-(3-methoxy-4-(4-methoxy-1-methyl-1H-indole-2-carboxamido)phenyl)-8-methylimidazo[1,5-a]pyrazin-3-yl)cyclohexyl acetate]
≥ 8.00 | CCC[C@H](C)OC(=O)Nc1ccc(-c2nc([C@H]3CC[C@H](CNC(=O)OC)CC3)n3ccnc(C)c23)cc1OC [Example 70]
≥ 8.00 | COc1cc(-c2nc([C@H]3CC[C@H](N4CCN(C)CC4)CC3)n3ccnc(C)c23)ccc1NC(=O)c1cc2c(OC)cccc2[nH]1 [Example 58, 4-Methoxy-N-(2-methoxy-4-(8-methyl-3-((trans)-4-(4-methylpiperazin-1-yl)cyclohexyl)imidazo[1,5-a]pyrazin-1-yl)phenyl)-1H-indole-2-carboxamide]
